Tested on: 883617-216-R-J1-PDC complex spheroid viability
Assay: Anticancer human tumor 883617-216-R-J1-PDC patient-derived bladder carcinoma cell line growth inhibition [POLQ]
Conditions: for IC50: curve of first compound; for viability, T/C: stronger effect = lower value
How it was run: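 Three-cell-type spheroids modelling solid tumor plus stroma served as the readout system; POL inhibitors were tested individually and in combination, concentration ranges set by clinical Cmax where known.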

[1] = second compound 0.0316 µM, first compound 0.00316 µM
[2] = second compound 0.0316 µM, first compound 0.01 µM
[3] = second compound 0.0316 µM, first compound 0.0316 µM
[4] = second compound 0.0316 µM, first compound 0.1 µM
[5] = second compound 0.0316 µM, first compound 0.316 µM
[6] = second compound 0.0316 µM, first compound 1 µM
[7] = second compound 0.1 µM, first compound 0.00316 µM
[8] = second compound 0.1 µM, first compound 0.01 µM
[9] = second compound 0.1 µM, first compound 0.0316 µM
[10] = second compound 0.1 µM, first compound 0.1 µM
[11] = second compound 0.1 µM, first compound 0.316 µM
[12] = second compound 0.1 µM, first compound 1 µM
[13] = second compound 0.316 µM, first compound 0.00316 µM
[14] = second compound 0.316 µM, first compound 0.01 µM
[15] = second compound 0.316 µM, first compound 0.0316 µM
[16] = second compound 0.316 µM, first compound 0.1 µM
[17] = second compound 0.316 µM, first compound 0.316 µM
[18] = second compound 0.316 µM, first compound 1 µM
[19] = second compound 1 µM, first compound 0.00316 µM
[20] = second compound 1 µM, first compound 0.01 µM
[21] = second compound 1 µM, first compound 0.0316 µM
[22] = second compound 1 µM, first compound 0.1 µM
[23] = second compound 1 µM, first compound 0.316 µM
[24] = second compound 1 µM, first compound 1 µM
[25] = second compound 3.16 µM, first compound 0.00316 µM
[26] = second compound 3.16 µM, first compound 0.01 µM
[27] = second compound 3.16 µM, first compound 0.0316 µM
[28] = second compound 3.16 µM, first compound 0.1 µM
[29] = second compound 3.16 µM, first compound 0.316 µM
[30] = second compound 3.16 µM, first compound 1 µM
[31] = second compound 10 µM, first compound 0.00316 µM
[32] = second compound 10 µM, first compound 0.01 µM
[33] = second compound 10 µM, first compound 0.0316 µM
[34] = second compound 10 µM, first compound 0.1 µM
[35] = second compound 10 µM, first compound 0.316 µM
[36] = second compound 10 µM, first compound 1 µM
[37] = second compound 0.0316 µM, first compound 3.16 µM
[38] = second compound 0.0316 µM, first compound 10 µM
[39] = second compound 0.1 µM, first compound 3.16 µM
[40] = second compound 0.1 µM, first compound 10 µM
[41] = second compound 0.316 µM, first compound 3.16 µM
[42] = second compound 0.316 µM, first compound 10 µM
[43] = second compound 1 µM, first compound 3.16 µM
[44] = second compound 1 µM, first compound 10 µM
[45] = second compound 3.16 µM, first compound 3.16 µM
[46] = second compound 3.16 µM, first compound 10 µM
[47] = second compound 10 µM, first compound 3.16 µM
[48] = second compound 10 µM, first compound 10 µM
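Note: spheroids exposed to compounds for seven days before readout.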
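Throughout, for viability, T/C: 100% = DMSO vehicle control viability.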

## C=CCn1c(=O)c2cnc(Nc3ccc(N4CCN(C)CC4)cc3)nc2n1-c1cccc(C(C)(C)O)n1 + COC1C(OC(N)=O)C(O)C(Oc2ccc3c(O)c(NC(=O)c4ccc(O)c(CC=C(C)C)c4)c(=O)oc3c2C)OC1(C)C
Second compound 0.0316 µM
  IC50: 916 nM
Second compound 0.1 µM
  IC50: 811 nM
Second compound 0.316 µM
  IC50: 945 nM
Second compound 1 µM
  IC50: 889 nM
Second compound 3.16 µM
  IC50: 883 nM
Second compound 10 µM
  IC50: 820 nM
[1]
  viability, T/C: 113%
[2]
  viability, T/C: 97.9%
[3]
  viability, T/C: 112%
[4]
  viability, T/C: 94.7%
[5]
  viability, T/C: 84.6%
[6]
  viability, T/C: 47%
[7]
  viability, T/C: 101%
[8]
  viability, T/C: 91.9%
[9]
  viability, T/C: 98.9%
[10]
  viability, T/C: 120%
[11]
  viability, T/C: 85.9%
[12]
  viability, T/C: 42%
[13]
  viability, T/C: 121%
[14]
  viability, T/C: 99.8%
[15]
  viability, T/C: 104%
[16]
  viability, T/C: 107%
[17]
  viability, T/C: 77.8%
[18]
  viability, T/C: 48.6%
[19]
  viability, T/C: 103%
[20]
  viability, T/C: 95.2%
[21]
  viability, T/C: 105%
[22]
  viability, T/C: 112%
[23]
  viability, T/C: 92.2%
[24]
  viability, T/C: 45.2%
[25]
  viability, T/C: 106%
[26]
  viability, T/C: 101%
[27]
  viability, T/C: 98.6%
[28]
  viability, T/C: 104%
[29]
  viability, T/C: 90%
[30]
  viability, T/C: 44.8%
[31]
  viability, T/C: 104%
[32]
  viability, T/C: 87.1%
[33]
  viability, T/C: 105%
[34]
  viability, T/C: 91.6%
[35]
  viability, T/C: 84%
[36]
  viability, T/C: 42.8%

## CCCS(=O)(=O)Nc1ccc(F)c(C(=O)c2c[nH]c3ncc(-c4ccc(Cl)cc4)cc23)c1F + COC1C(OC(N)=O)C(O)C(Oc2ccc3c(O)c(NC(=O)c4ccc(O)c(CC=C(C)C)c4)c(=O)oc3c2C)OC1(C)C
Second compound 0.0316 µM
  IC50: 8230 nM
Second compound 0.1 µM
  IC50: 9580 nM
Second compound 0.316 µM
  IC50: > 10000 nM
Second compound 1 µM
  IC50: 9070 nM
Second compound 3.16 µM
  IC50: > 10000 nM
Second compound 10 µM
  IC50: 8990 nM
[3]
  viability, T/C: 90.3%
[4]
  viability, T/C: 103%
[5]
  viability, T/C: 103%
[6]
  viability, T/C: 94.2%
[37]
  viability, T/C: 84.6%
[38]
  viability, T/C: 42.9%
[9]
  viability, T/C: 105%
[10]
  viability, T/C: 119%
[11]
  viability, T/C: 108%
[12]
  viability, T/C: 105%
[39]
  viability, T/C: 76.8%
[40]
  viability, T/C: 49%
[15]
  viability, T/C: 102%
[16]
  viability, T/C: 102%
[17]
  viability, T/C: 102%
[18]
  viability, T/C: 103%
[41]
  viability, T/C: 90%
[42]
  viability, T/C: 50.1%
[21]
  viability, T/C: 103%
[22]
  viability, T/C: 93.9%
[23]
  viability, T/C: 106%
[24]
  viability, T/C: 98.5%
[43]
  viability, T/C: 100%
[44]
  viability, T/C: 45.3%
[27]
  viability, T/C: 94.8%
[28]
  viability, T/C: 88%
[29]
  viability, T/C: 103%
[30]
  viability, T/C: 105%
[45]
  viability, T/C: 96.4%
[46]
  viability, T/C: 56.4%
[33]
  viability, T/C: 106%
[34]
  viability, T/C: 96.7%
[35]
  viability, T/C: 97.3%
[36]
  viability, T/C: 103%
[47]
  viability, T/C: 93.2%
[48]
  viability, T/C: 45.4%

## CNCc1ccc(-c2[nH]c3cc(F)cc4c3c2CCNC4=O)cc1 + COC1C(OC(N)=O)C(O)C(Oc2ccc3c(O)c(NC(=O)c4ccc(O)c(CC=C(C)C)c4)c(=O)oc3c2C)OC1(C)C
Second compound 0.0316 µM
  IC50: > 10000 nM
Second compound 0.1 µM
  IC50: > 10000 nM
Second compound 0.316 µM
  IC50: > 10000 nM
Second compound 1 µM
  IC50: > 10000 nM
Second compound 3.16 µM
  IC50: > 10000 nM
Second compound 10 µM
  IC50: > 10000 nM
[3]
  viability, T/C: 109%
[4]
  viability, T/C: 104%
[5]
  viability, T/C: 101%
[6]
  viability, T/C: 97.9%
[37]
  viability, T/C: 95.3%
[38]
  viability, T/C: 80.7%
[9]
  viability, T/C: 107%
[10]
  viability, T/C: 97.3%
[11]
  viability, T/C: 107%
[12]
  viability, T/C: 101%
[39]
  viability, T/C: 104%
[40]
  viability, T/C: 98.6%
[15]
  viability, T/C: 116%
[16]
  viability, T/C: 98.9%
[17]
  viability, T/C: 104%
[18]
  viability, T/C: 106%
[41]
  viability, T/C: 103%
[42]
  viability, T/C: 94%
[21]
  viability, T/C: 104%
[22]
  viability, T/C: 104%
[23]
  viability, T/C: 103%
[24]
  viability, T/C: 90.4%
[43]
  viability, T/C: 98%
[44]
  viability, T/C: 87.9%
[27]
  viability, T/C: 103%
[28]
  viability, T/C: 92.8%
[29]
  viability, T/C: 102%
[30]
  viability, T/C: 87.2%
[45]
  viability, T/C: 107%
[46]
  viability, T/C: 92.9%
[33]
  viability, T/C: 110%
[34]
  viability, T/C: 97.2%
[35]
  viability, T/C: 95.4%
[36]
  viability, T/C: 91.9%
[47]
  viability, T/C: 94.7%
[48]
  viability, T/C: 95.6%

## COc1cccc(OCCCN)c1-c1cc(Nc2cnc(C#N)cn2)n[nH]1 + COC1C(OC(N)=O)C(O)C(Oc2ccc3c(O)c(NC(=O)c4ccc(O)c(CC=C(C)C)c4)c(=O)oc3c2C)OC1(C)C
Second compound 0.0316 µM
  IC50: 38.9 nM
Second compound 0.1 µM
  IC50: 33.2 nM
Second compound 0.316 µM
  IC50: 58.9 nM
Second compound 1 µM
  IC50: 24.4 nM
Second compound 3.16 µM
  IC50: 21.5 nM
Second compound 10 µM
  IC50: 36.5 nM
[1]
  viability, T/C: 83.3%
[2]
  viability, T/C: 73.8%
[3]
  viability, T/C: 46.9%
[4]
  viability, T/C: 42.4%
[5]
  viability, T/C: 28.1%
[6]
  viability, T/C: 23.4%
[7]
  viability, T/C: 91%
[8]
  viability, T/C: 76.8%
[9]
  viability, T/C: 46.5%
[10]
  viability, T/C: 40.4%
[11]
  viability, T/C: 27.6%
[12]
  viability, T/C: 27.1%
[13]
  viability, T/C: 85.6%
[14]
  viability, T/C: 67.3%
[15]
  viability, T/C: 66.3%
[16]
  viability, T/C: 37.6%
[17]
  viability, T/C: 32.5%
[18]
  viability, T/C: 30%
[19]
  viability, T/C: 90.8%
[20]
  viability, T/C: 69.9%
[21]
  viability, T/C: 42.6%
[22]
  viability, T/C: 35.4%
[23]
  viability, T/C: 27.7%
[24]
  viability, T/C: 27.2%
[25]
  viability, T/C: 88.2%
[26]
  viability, T/C: 62.2%
[27]
  viability, T/C: 41.4%
[28]
  viability, T/C: 37.5%
[29]
  viability, T/C: 39.6%
[30]
  viability, T/C: 27.4%
[31]
  viability, T/C: 92.2%
[32]
  viability, T/C: 75.2%
[33]
  viability, T/C: 50.9%
[34]
  viability, T/C: 36.2%
[35]
  viability, T/C: 35%
[36]
  viability, T/C: 25.7%

Source: PubChem BioAssay AID1963833 (Molecular Pharmacology Branch, DTP, NCI, 2024)
